Molecules are shown by their SMILES.

The target of data set [1] is T1, human TrkA (Homo sapiens, UniProt P04629).
T1 construct: purchased Lifetechnologies PV3144
Put plainly: Test Example 2: Human TrkA Inhibition Assay. Type of data set: biochemical. Conditions: Test Example 2. A digest of the protocol:
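Mobility-shift kinase assay: 90 min reaction at room temperature, stopped with EDTA buffer; phosphorylated and non-phosphorylated fluorescent substrate measured, conversion ratio calculated. Inhibition % normalised between DMSO-only wells and no-TrkA wells.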

Data set [2] addresses T2, human ether-a-go-go related gene (hERG) channel (Homo sapiens, UniProt Q12809).
T2 construct: expressed in transfected cells; host or cells: CHO cells
Kind of data set: Test Example 3: hERG Test (whole cell patch clamp, IKr). Type of data set: cell-based. The settings on record: CHO cells expressing hERG. The source says:
For the purpose of assessing risk of an electrocardiogram QT interval prolongation of the compound of the present invention, effects of the compound of the present invention on delayed rectifier K current (I r), which plays an important role in the ventricular repolarization process, was studied using CHO cells expressing human ether-a-go-go related gene (hERG) channel.
After a cell was retained at a membrane potential of −80 mV by whole cell patch clamp method using an automated patch clamp system (QPatch; Sophion Bioscience A/S), IKr induced by leak potential at −50 mV, and then depolarization pulse stimulation at +20 mV for 2 seconds and, further, repolarization pulse stimulation at −50 mV for 2 seconds, was recorded. After the generated current was stabilized, extracellular solution (NaCl: 145 mmol/L, KCl: 4 mmol/L, CaCl2: 2 mmol/L, MgCl2: 1 mmol/L, glucose: 10 mmol/L, HEPES (4-(2-hydroxyethyl)-1-piperazineethanesulfonic acid): 10 mmol/L, pH7.4), in which the compound of the present invention had been dissolved at an objective concentration, was applied to the cell at room temperature for 10 minutes. From the recording IKr, an absolute value of the tail peak current was measured based on the current value at the resting membrane potential using analysis software (Falster Patch; Sophion Bioscience A/S). Further, the % inhibition relative to the tail peak current before application of the compound of the present invention was calculated, and compared with the vehicle-applied group (0.1% dimethyl sulfoxide solution) to assess influence of the compound of the present invention on IKr.

The target of data set [3] is T1, human TrkA. Kind of data set: Test Example 2-2: Human TrkA Inhibition Assay. Type of data set: biochemical. The protocol:
Seven point five μL per well of human TrkA (PV3144, Lifetechnologies, final concentration: 1 nmol/L) suspended in the assay buffer (100 mmol/L 4-(2-hydroxyethyl)-1-piperazineethanesulfonic acid (HEPES), 10 mmol/L magnesium chloride, 0.003 vol % Brij-35, 0.004 vol % Tween20 and 1 mmol/L dithiothreitol (DTT)) was applied in a 384 well plate and the plate was pre-incubated for 15 min at room temperature with 0.4 μL of each compound (final concentration: […]) dissolved in DMSO. Then, fluorescent substrate (FL-peptide 27, 760424, PerkinElmer, final concentration: 1.5 μmol/L) and ATP (final concentration […]) dissolved in the assay buffer was added in each well. After the incubation of 120 min at 37° C., fifteen μL of termination buffer (100 mmol/L HEPES, 40 mmol/L ethylenediaminetetraacetic acid (EDTA), 10 mmol/L magnesium chloride, 0.003 vol % Brij-35, 0.004 vol % Tween20, 1 mmol/L DTT and 0.16 vol % Coating Reagent 3) was added in each well to stop the enzyme reaction. Fluorescent intensities (FI) of phosphorylated and non-phosphorylated fluorescent substrates were measured by LabChip EZReader II (Caliper LifeSciences, Inc.), and conversion ratio (CR) was calculated by the following formula-1. The CR in the well applied with DMSO alone was used as a negative control and the CR in the well without applying TrkA was used as a positive control. The inhibitory effect of each compound on TrkA phosphorylation was calculated by the following formula-2. CR (%)=(FI of phosphorylated substrate/(FI of phosphorylated substrate+FI of non-phosphorylated substrate))×100 (Formula-1) Phosphorylation inhibition (%)=(1−(CR with compound treatment−CR of positive control)/(CR of negative control−CR of positive control))×100 (Formula-2) Inhibitory effect on TrkA phosphorylation (%)=(1−(CR in compound treated well−CR in positive control)/(CR in negative control−CR in positive control))×100.
The 50/o inhibitory concentration (IC50) was determined by the logistic regression using the inhibition data in 10 points at a range of 2 μmol/L to 0.1 nmol/L or 200 μmol/L to 10 nmol/L).

Where [4] appears, read: human TrkA inhibition, class symbols A/B/C, read-out: IC50_nM.
[5] abbreviates: human TrkA 1 nmol/L, 120 min at 37° C., read-out: TrkA inhibition IC50.
[6] abbreviates: human TrkA 2.5 nmol/L, ATP 500 μmol/L, 90 min at room temperature, read-out: TrkA inhibitory activity IC50.

T1 sequence (P04629 33-796): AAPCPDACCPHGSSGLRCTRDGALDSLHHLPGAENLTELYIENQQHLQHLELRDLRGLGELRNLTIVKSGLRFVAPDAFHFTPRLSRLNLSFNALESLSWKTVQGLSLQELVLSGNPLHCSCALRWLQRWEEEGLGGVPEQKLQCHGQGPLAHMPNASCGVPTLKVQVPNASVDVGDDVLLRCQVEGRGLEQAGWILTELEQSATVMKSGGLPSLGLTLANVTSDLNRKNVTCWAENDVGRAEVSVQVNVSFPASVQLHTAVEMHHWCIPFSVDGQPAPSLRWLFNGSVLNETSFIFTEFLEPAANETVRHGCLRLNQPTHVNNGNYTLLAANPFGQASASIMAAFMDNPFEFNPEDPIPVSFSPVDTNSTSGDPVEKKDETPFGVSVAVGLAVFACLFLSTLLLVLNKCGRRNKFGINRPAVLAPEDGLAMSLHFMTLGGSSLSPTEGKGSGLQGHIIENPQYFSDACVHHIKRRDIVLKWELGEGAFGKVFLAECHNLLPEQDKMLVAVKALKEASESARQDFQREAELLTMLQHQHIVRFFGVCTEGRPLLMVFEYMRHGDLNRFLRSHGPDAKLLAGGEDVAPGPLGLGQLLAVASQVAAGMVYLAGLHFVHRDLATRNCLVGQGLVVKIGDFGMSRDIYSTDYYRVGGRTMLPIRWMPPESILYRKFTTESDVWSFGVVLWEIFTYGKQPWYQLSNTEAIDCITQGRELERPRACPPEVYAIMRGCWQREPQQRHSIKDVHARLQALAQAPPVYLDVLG
T2 sequence (Q12809 whole entry): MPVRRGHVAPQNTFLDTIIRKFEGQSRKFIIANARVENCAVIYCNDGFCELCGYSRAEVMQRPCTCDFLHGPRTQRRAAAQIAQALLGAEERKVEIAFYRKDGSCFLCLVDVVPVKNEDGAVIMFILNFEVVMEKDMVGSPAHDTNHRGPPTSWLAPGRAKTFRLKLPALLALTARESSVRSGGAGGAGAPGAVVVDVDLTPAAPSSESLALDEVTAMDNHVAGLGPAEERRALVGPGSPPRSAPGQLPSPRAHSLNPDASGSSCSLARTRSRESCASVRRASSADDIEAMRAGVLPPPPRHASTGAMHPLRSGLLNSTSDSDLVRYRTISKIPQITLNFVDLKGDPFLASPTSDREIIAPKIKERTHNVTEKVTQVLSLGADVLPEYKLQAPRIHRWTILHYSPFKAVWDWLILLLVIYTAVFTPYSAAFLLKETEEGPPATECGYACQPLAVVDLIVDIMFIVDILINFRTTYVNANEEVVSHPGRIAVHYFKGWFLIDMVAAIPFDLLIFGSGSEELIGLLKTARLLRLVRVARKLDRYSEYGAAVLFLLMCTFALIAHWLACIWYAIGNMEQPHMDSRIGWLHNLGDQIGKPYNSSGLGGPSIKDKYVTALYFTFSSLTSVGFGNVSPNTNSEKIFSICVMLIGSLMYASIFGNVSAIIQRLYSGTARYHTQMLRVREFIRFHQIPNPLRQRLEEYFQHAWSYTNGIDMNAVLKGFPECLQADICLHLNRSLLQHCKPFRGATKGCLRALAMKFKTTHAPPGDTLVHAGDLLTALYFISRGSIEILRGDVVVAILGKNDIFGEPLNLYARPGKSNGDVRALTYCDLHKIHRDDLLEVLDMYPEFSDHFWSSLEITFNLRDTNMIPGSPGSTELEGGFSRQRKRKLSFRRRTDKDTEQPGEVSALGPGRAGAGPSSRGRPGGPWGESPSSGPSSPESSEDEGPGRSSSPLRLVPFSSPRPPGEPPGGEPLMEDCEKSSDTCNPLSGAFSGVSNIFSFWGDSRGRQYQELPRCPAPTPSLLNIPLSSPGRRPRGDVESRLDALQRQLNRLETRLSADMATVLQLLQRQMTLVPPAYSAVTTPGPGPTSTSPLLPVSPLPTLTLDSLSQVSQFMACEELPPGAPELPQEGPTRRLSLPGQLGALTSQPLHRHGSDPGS

Consider `C=C1C[C@@H](NC(=O)Nc2c(C)c(-c3cnn(C)c3)nn2-c2ccccc2)[C@H](c2ccccc2)C1` (racemic) [Compound I-29], for which, at human TrkA [1] (setting [4]), the IC50 is under 0.1 µM. Besides, the “% inhibition of IKr (hERG tail peak current)” value (“% inhibition of IKr” for short) in data set [2] is 21.2%. As to `Cc1c(-c2cnn(C)c2)nn(-c2ccccc2)c1NC(=O)N[C@@H]1CN(CCOCC(F)(F)F)C[C@H]1c1ccc(F)c(F)c1` [Compound I-22], the figures for the IC50 at human TrkA [3] (setting [5]) and at human TrkA [1] (setting [6]) were 0.17 µM and 0.035 µM, respectively. The corresponding values for `COCC[C@@H]1C[C@@H](NC(=O)Nc2c(C)c(-c3cnn(C)c3)nn2-c2ccccc2)[C@H](c2ccccc2)C1` [Compound I-84] are 0.0015 µM and 0.00072 µM. For `COCCC1C[C@@H](NC(=O)Nc2c(C)c(-c3cnn(C)c3)nn2-c2ccccc2)[C@H](c2ccc(F)c(F)c2)N1C` (stereo partly drawn) [Compound I-87], in that order: 0.0054 µM and 0.0018 µM.

On to `COCCN1C[C@@H](NC(=O)Nc2c(C)c(-c3cnn(C)c3)nn2-c2ccccc2)[C@](C)(c2ccccc2)C1` (racemic) [Compound I-16], for which the IC50 on human TrkA [3] (setting [5]) is 0.41 µM; at human TrkA [1] (setting [6]) it was 0.121 µM. The corresponding values for `Cc1c(-c2cnn(C)c2)nn(-c2ccccc2)c1NC(=O)N[C@@H]1CN(Cc2ccco2)C[C@H]1c1ccc(F)c(F)c1` [Compound I-86] are 0.0018 µM and 0.0011 µM. Turning to `COCCC1C[C@@H](NC(=O)Nc2c(C)c(-c3cnn(C)c3)nn2-c2ccccc2)[C@H](c2ccc(O)c(O)c2)C1` (stereo partly drawn) [Compound I-221], the IC50 on human TrkA [3] (setting [4]) was under 0.1 µM. Moreover, the “% inhibition of IKr” value in data set [2] is recorded as 13.2%. Turning to `CC=C1C[C@@H](NC(=O)Nc2c(C)c(-c3cnn(C)c3)nn2-c2ccccc2)[C@H](c2ccccc2)C1` [Compound I-102], the IC50 was 0.021 µM on human TrkA [3] (setting [5]) and 0.043 µM on human TrkA [1] (setting [6]). For `COCC[C@@H]1C[C@@H](NC(=O)Nc2c(C)c(-c3cnc(C)nc3)nn2-c2ccccc2)[C@H](c2ccc(F)c(F)c2)N1C` [Compound I-255], the IC50 at human TrkA [3] (setting [5]) was found to be 0.0011 µM. Moreover, in data set [2], the “% inhibition of IKr” value was 10.2%. Consider `COCCC1C[C@@H](NC(=O)Nc2c(C)c(-c3cnn(C)c3)nn2-c2ccccc2)[C@H](c2ccc(F)c(F)c2)N1` (stereo partly drawn) [Compound I-91], for which the results for the IC50 at human TrkA [3] (setting [5]) and on human TrkA [1] (setting [6]) were 0.037 µM and 0.0078 µM, respectively. Turning to `COCC[C@@H]1C[C@@H](NC(=O)Nc2c(C)c(-c3cnn(C)c3)nn2-c2ccccc2)[C@H](c2ccccc2)C1` [Compound I-084], the “% inhibition of IKr” value in data set [2] was 10.0%. Same read-out and setting: for `COCC(=O)N1C[C@@H](NC(=O)Nc2c(C)c(-c3cnn(C)c3)nn2-c2ccccc2)[C@H](c2ccc(F)c(F)c2)C1` [Compound I-026] the value was 3.3%.

As to `COCCN1C[C@@H](OC(=O)Nc2c(C)c(-c3cnn(C)c3)nn2-c2ccccc2)[C@H](c2ccc(F)c(F)c2)C1` (racemic) [Compound I-1], the IC50 on human TrkA [3] (setting [5]) was 0.12 µM; at human TrkA [1] (setting [6]), 0.083 µM. For `CNC(=O)C(COC)N1C[C@@H](NC(=O)Nc2c(C)c(-c3cnn(C)c3)nn2-c2ccccc2)[C@H](c2ccc(F)c(F)c2)C1` (stereo partly drawn) [Compound I-109], in that order: 0.22 µM and 0.095 µM.

As to `CO[C@@H]1C[C@H](NC(=O)Nc2c(C)c(-c3cnn(C)c3)nn2-c2ccccc2)[C@@H](c2ccccc2)C1` (racemic) [Compound I-233], at human TrkA [3] (setting [4]), the IC50 is over 1 µM. On the same count and under the same terms, for `COCC(OC)[C@H]1C[C@@H](NC(=O)Nc2c(C)c(-c3cnn(C)c3)nn2-c2ccccc2)[C@H](c2ccc(F)c(F)c2)N1C` (stereo partly drawn) [Compound I-231] the value was over 1 µM; for `Cc1c(-c2cnn(C)c2)nn(-c2ccccc2)c1NC(=O)N[C@@H]1CN(Cc2csc(Br)n2)C[C@H]1c1ccc(F)c(F)c1` [Compound I-205], under 0.1 µM.

With `COCC(C(=O)OC)[C@@H]1C[C@@H](NC(=O)Nc2c(C)c(-c3cnn(C)c3)nn2-c2ccccc2)[C@H](c2ccccc2)C1` (mixture of isomers) [Compound I-243], the IC50 on human TrkA [3] (setting [4]) was over 1 µM. Same read-out and setting: for `CCOCCN1C[C@@H](NC(=O)Nc2c(C)c(-c3cnn(C)c3)nn2-c2ccccc2)[C@H](c2ccc(F)c(F)c2)C1` [Compound I-249] the value was under 0.1 µM.

Take `CCN1C(CCOC)C[C@@H](NC(=O)Nc2c(C)c(-c3cnn(C)c3)nn2-c2ccccc2)[C@@H]1c1ccc(F)c(F)c1` (stereo partly drawn) [Compound I-178]: at human TrkA [3] (setting [4]), the IC50 was under 0.1 µM. On the same count and under the same terms, for `COCCC1C[C@@H](NC(=O)Nc2c(C)c(-c3cnn(C)c3)nn2-c2ccccc2)[C@H](c2ccc(F)c(F)c2)N1CC#N` (stereo partly drawn) [Compound I-179] the value was 0.1 to 1 µM; for `COCC(COS(C)(=O)=O)[C@@H]1C[C@@H](NC(=O)Nc2c(C)c(-c3cnn(C)c3)nn2-c2ccccc2)[C@H](c2ccccc2)C1` (stereo partly drawn) [Compound I-245], over 1 µM; for `Cc1c(-c2cnn(C)c2)nn(-c2ccccc2)c1NC(=O)N[C@@H]1CN(Cc2ccc(CO)o2)C[C@H]1c1ccc(F)c(F)c1` [Compound I-191], 0.1 to 1 µM.

With `Cc1c(-c2cnn(C)c2)nn(-c2ccccc2)c1NC(=O)N[C@@H]1CN(CCOC(C)C)C[C@H]1c1ccc(F)c(F)c1` [Compound I-217], the IC50 on human TrkA [3] (setting [4]) was under 0.1 µM.

With `COCCC1C[C@H](NC(=O)Nc2c(C)c(-c3cnn(C)c3)nn2-c2ccccc2)[C@@H](c2ccccc2)C1` (stereo partly drawn) [Compound I-213], at human TrkA [3] (setting [4]), the IC50 is 0.1 to 1 µM. In the case of `COCCN1C[C@@H](NC(=O)Nc2c(C)c(-c3cnn(C)c3)nn2-c2ccccc2)[C@H](c2ccc3c(c2)COC3)C1` (racemic) [Compound I-274], at human TrkA [3] (class symbols, read-out: IC50_nM), the IC50 is 0.1 to 1 µM.

Regarding `COCCN1C[C@@H](NC(=O)Nc2c(C)c(-c3cnn(C)c3)nn2-c2ccccc2)[C@H](c2ccc3c(c2)OCO3)C1` (racemic) [Compound I-94], the IC50 came to 0.21 µM on human TrkA [3] (setting [5]) and 0.022 µM at human TrkA [1] (setting [6]).

With `COCC[C@@H]1C[C@@H](NC(=O)Nc2c(C)c(-c3ccc(C(=O)O)cc3)nn2-c2ccccc2)[C@H](c2ccc(F)c(F)c2)N1C` [Compound I-237], the IC50 on human TrkA [3] (setting [4]) is under 0.1 µM. Regarding `COCCN1C[C@@H](NC(=O)Cc2c(C)c(-c3cnn(C)c3)nn2-c2ccccc2)[C@H](c2ccc(F)c(F)c2)C1` [Compound I-8], the IC50 on human TrkA [3] (setting [5]) is 0.071 µM; at human TrkA [1] (setting [6]), 0.026 µM. Consider `COCCN1C[C@@H](NC(=O)Nc2c(C)c(-c3cnn(C)c3)nn2-c2ccccc2)[C@H](c2ccc(F)c(F)c2)C1` [Compound I-250], for which the IC50 at human TrkA [3] (setting [4]) is under 0.1 µM. As to `COCC[C@@H]1C[C@@H](NC(=O)Nc2c(C)c(C3=CCN(C(=O)OC(C)(C)C)CC3)nn2-c2ccccc2)[C@H](c2ccc(F)c(F)c2)N1C` [Compound I-259], at human TrkA [3] (setting [4]), the IC50 is under 0.1 µM. `COCC[C@@H]1C[C@@H](NC(=O)Nc2c(C)c(-c3cnc(CO)nc3)nn2-c2ccccc2)[C@H](c2ccccc2)C1` [Compound I-269]: the IC50 on human TrkA [3] (setting [5]) is 0.0013 µM. On to `COCCC1C[C@@H](NC(=O)Nc2c(C)c(-c3ccnc(C)c3)nn2-c2ccccc2)[C@H](c2ccccc2)C1` (stereo partly drawn) [Compound I-234], for which the IC50 on human TrkA [3] (setting [4]) was under 0.1 µM. The same measure, in the same setting: for `CO[C@@H]1C[C@@H](NC(=O)Nc2c(C)c(-c3cnn(C)c3)nn2-c2ccccc2)[C@H](c2ccccc2)C1` (racemic) [Compound I-210] the value was 0.1 to 1 µM.
